# According to the kinase profiling compilation of Christmann-Franck et al. (2016):
# Where “and” joins values, the source holds several entries; their conditions need not be identical. Identical values can stand only once.
# Experiments:
# Experiment in all cases: radiometric filter-binding kinase assay, Kinase HotSpot
# Details in all cases: compound 0.5 µM; ATP 10 µM
# HCK (human) = HCK (human) (UniProt P08631)
# PDGFRA (human) = PDGFRA (human) (UniProt P16234)
# CAMK2B (human) = CAMK2B (human) (UniProt Q13554)
# PAK2 (human) = PAK2 (human) (UniProt Q13177)
# SRPK1 (human) = SRPK1 (human) (UniProt Q96SB4)
# FLT1 (human) = FLT1 (human) (UniProt P17948)
# JAK2 JH1 JH2 (human) = JAK2 JH1 JH2 (human) (UniProt O60674)
# CAMK4 (human) = CAMK4 (human) (UniProt Q16566)
# LYN (human) = LYN (human) (UniProt P07948)
# [1] = target: JAK1 JH1 catalytic (human) (UniProt P23458)
# PRKD3 (human) = PRKD3 (human) (UniProt O94806)
# TNK2 (human) = TNK2 (human) (UniProt Q07912)
# MAPKAPK3 (human) = MAPKAPK3 (human) (UniProt Q16644)
# RPS6KA1 KD1 KD2 (human) = RPS6KA1 KD1 KD2 (human) (UniProt Q15418)
# PRKCH (human) = PRKCH (human) (UniProt P24723)
# DCLK2 (human) = DCLK2 (human) (UniProt Q8N568)
# ZAP70 (human) = ZAP70 (human) (UniProt P43403)
# PLK3 (human) = PLK3 (human) (UniProt Q9H4B4)
# MAPK9 (human) = MAPK9 (human) (UniProt P45984)
# FER (human) = FER (human) (UniProt P16591)
# MAPK14 (human) = MAPK14 (human) (UniProt Q16539)
# PDPK1 (human) = PDPK1 (human) (UniProt O15530)
# DAPK1 (human) = DAPK1 (human) (UniProt P53355)
# PASK (human) = PASK (human) (UniProt Q96RG2)
# WEE1 (human) = WEE1 (human) (UniProt P30291)
# CSNK1G1 (human) = CSNK1G1 (human) (UniProt Q9HCP0)
# DMPK (human) = DMPK (human) (UniProt Q09013)
# NEK9 (human) = NEK9 (human) (UniProt Q8TD19)
# AKT1 (human) = AKT1 (human) (UniProt P31749)
# TAOK1 (human) = TAOK1 (human) (UniProt Q7L7X3)
# CDK4 CCND1 (human) = CDK4 CCND1 (human) (UniProt P24385+P11802)
# GRK6 (human) = GRK6 (human) (UniProt P43250)
# LCK (human) = LCK (human) (UniProt P06239)
# RPS6KB2 (human) = RPS6KB2 (human) (UniProt Q9UBS0)
# BLK (human) = BLK (human) (UniProt P51451)
# IRAK4 (human) = IRAK4 (human) (UniProt Q9NWZ3)
# PAK1 (human) = PAK1 (human) (UniProt Q13153)
# CDK1 CCNA2 (human) = CDK1 CCNA2 (human) (UniProt P06493+P20248)
# ROS1 (human) = ROS1 (human) (UniProt P08922)
# TBK1 (human) = TBK1 (human) (UniProt Q9UHD2)
# PIM1 (human) = PIM1 (human) (UniProt P11309)
# Sequence of MAPK14 (human) (Q16539 whole entry, looked up): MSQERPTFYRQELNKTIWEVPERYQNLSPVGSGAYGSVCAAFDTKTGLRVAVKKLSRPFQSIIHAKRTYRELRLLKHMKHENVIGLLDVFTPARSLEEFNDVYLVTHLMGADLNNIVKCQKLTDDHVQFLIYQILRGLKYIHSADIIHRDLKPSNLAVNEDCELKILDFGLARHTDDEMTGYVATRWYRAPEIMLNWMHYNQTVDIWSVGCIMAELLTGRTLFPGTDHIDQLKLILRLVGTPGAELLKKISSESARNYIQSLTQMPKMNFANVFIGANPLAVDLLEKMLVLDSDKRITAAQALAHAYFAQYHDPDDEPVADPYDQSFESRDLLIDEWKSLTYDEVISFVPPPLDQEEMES
# Sequence of TNK2 (human) (Q07912 whole entry, looked up): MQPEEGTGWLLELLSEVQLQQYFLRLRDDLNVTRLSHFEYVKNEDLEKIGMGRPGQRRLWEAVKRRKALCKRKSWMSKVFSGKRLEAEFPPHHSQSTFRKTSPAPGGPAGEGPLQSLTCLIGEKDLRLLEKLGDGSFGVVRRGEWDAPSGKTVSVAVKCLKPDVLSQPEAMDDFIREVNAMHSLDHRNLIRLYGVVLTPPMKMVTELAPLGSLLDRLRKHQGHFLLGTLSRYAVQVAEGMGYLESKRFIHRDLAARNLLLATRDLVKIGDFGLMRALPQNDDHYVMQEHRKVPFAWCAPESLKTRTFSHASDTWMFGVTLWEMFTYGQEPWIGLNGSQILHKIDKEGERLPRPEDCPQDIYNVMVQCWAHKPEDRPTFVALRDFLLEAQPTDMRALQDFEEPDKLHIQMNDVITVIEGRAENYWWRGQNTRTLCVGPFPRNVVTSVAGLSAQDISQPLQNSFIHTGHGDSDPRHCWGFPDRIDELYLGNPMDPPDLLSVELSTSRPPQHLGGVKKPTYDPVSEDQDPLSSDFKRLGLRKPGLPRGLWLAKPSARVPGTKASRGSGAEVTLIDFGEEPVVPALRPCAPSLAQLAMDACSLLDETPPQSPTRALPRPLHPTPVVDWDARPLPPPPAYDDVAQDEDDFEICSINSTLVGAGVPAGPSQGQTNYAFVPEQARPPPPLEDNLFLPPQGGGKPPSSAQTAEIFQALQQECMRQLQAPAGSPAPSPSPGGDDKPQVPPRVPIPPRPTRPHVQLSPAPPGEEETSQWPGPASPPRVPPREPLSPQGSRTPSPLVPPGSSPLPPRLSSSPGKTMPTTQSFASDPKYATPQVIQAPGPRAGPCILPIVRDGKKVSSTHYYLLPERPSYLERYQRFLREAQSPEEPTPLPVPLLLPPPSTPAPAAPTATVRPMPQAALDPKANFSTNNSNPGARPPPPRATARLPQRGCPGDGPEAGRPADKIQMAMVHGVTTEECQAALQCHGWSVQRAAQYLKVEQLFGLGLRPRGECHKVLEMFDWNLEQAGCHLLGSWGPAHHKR
# Sequence of CAMK4 (human) (Q16566 whole entry, looked up): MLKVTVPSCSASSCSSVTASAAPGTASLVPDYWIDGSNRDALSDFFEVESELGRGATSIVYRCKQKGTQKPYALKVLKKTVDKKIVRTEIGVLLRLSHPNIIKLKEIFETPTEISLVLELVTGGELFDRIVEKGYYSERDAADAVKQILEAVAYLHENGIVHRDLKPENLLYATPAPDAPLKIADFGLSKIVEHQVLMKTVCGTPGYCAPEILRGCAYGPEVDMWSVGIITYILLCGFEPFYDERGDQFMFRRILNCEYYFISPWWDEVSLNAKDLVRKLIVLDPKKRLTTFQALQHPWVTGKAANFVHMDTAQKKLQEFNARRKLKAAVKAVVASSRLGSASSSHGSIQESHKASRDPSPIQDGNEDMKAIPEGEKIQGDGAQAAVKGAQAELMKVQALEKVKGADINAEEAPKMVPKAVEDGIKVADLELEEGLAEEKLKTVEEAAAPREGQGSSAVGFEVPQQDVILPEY
# Sequence of PASK (human) (Q96RG2 whole entry, looked up): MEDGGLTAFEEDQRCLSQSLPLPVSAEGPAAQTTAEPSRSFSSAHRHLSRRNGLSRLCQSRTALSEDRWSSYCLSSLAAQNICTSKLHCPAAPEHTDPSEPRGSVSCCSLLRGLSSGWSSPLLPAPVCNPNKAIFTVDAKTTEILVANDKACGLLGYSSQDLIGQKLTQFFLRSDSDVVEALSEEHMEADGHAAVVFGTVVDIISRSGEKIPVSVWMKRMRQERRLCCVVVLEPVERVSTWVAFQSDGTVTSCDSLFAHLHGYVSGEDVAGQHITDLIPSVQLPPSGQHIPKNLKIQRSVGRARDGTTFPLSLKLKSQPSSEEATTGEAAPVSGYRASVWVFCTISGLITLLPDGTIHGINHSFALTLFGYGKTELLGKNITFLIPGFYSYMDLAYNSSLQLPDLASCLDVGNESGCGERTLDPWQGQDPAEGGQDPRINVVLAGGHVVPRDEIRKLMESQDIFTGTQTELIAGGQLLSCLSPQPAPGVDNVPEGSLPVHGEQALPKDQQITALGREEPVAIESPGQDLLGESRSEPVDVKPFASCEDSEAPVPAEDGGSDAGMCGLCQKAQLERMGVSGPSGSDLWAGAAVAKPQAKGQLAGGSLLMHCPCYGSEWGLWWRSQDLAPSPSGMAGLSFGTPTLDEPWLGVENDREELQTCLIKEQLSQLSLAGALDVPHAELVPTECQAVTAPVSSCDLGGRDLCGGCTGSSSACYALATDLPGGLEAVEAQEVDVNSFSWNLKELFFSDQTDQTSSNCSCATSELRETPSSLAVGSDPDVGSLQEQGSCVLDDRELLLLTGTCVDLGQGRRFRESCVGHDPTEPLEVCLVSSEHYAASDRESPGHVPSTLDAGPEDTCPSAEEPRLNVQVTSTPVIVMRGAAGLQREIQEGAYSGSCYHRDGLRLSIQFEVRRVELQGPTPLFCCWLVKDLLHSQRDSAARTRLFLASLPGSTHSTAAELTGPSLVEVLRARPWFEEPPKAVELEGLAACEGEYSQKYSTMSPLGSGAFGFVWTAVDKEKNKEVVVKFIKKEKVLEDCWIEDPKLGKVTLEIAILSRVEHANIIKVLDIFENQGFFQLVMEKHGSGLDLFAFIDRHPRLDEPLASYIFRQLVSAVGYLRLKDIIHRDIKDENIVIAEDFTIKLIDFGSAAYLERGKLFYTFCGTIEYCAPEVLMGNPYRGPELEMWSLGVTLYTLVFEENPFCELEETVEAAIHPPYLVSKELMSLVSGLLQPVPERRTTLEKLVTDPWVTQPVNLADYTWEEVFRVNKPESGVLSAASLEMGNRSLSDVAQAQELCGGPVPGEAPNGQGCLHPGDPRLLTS
# Sequence of HCK (human) (P08631 whole entry, looked up): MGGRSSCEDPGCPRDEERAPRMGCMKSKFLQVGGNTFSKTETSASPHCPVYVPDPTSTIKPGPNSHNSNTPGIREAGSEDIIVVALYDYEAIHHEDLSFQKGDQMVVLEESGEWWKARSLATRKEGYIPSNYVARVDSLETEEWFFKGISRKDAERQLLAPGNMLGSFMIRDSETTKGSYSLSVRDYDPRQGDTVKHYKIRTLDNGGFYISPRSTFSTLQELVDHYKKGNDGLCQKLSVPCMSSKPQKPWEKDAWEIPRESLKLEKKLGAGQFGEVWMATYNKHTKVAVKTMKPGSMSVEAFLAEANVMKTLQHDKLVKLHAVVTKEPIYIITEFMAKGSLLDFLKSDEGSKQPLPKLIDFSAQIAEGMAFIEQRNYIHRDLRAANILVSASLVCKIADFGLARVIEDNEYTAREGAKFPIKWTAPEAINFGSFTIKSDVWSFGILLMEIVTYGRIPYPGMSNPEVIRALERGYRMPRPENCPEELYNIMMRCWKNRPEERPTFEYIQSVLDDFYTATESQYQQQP
# Sequence of FLT1 (human) (P17948 whole entry, looked up): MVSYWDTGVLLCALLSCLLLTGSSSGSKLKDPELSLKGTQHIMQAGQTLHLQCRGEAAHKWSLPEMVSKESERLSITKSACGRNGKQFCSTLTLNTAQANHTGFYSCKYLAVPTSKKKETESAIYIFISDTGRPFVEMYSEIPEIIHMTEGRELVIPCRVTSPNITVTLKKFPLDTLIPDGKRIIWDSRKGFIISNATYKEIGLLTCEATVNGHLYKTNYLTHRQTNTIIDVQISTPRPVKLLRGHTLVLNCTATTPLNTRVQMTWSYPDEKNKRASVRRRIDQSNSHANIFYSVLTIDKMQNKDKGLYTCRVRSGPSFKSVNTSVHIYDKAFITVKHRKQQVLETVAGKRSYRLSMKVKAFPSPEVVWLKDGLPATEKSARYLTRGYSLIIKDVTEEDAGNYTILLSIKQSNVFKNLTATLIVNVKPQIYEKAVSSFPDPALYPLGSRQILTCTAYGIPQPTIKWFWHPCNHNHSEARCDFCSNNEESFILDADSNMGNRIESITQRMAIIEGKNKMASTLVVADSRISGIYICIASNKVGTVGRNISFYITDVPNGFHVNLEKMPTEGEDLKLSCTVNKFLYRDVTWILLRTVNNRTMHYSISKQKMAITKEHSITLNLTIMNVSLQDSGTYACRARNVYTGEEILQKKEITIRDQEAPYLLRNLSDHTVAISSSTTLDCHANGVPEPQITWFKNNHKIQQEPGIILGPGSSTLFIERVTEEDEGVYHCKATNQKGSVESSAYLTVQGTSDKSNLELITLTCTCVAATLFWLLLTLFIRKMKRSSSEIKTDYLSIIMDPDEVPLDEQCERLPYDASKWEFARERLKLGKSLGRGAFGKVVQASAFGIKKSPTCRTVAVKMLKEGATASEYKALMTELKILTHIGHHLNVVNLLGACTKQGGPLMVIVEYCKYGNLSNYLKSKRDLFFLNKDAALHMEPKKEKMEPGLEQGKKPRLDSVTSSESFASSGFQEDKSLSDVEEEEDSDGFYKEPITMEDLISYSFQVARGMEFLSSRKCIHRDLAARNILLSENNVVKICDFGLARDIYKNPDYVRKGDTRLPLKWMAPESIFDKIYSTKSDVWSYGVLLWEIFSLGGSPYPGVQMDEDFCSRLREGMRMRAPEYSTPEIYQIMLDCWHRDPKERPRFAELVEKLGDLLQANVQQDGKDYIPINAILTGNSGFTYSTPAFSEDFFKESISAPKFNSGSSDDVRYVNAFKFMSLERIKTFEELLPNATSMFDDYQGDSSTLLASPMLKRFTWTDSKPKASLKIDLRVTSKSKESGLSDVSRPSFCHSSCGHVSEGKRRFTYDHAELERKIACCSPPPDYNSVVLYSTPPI
structure (smiles),measurement,setting,value
c1ccc(-c2n[nH]c3c2oc2ccccc23)cc1,residual activity,HCK (human),111%
same,residual activity,PDGFRA (human),73.7%
same,residual activity,CAMK2B (human),101%
same,residual activity,PAK2 (human),92.3%
same,residual activity,SRPK1 (human),113%
same,residual activity,FLT1 (human),94.5%
same,residual activity,JAK2 JH1 JH2 (human),89.8%
same,residual activity,CAMK4 (human),93.7%
same,residual activity,LYN (human),102% and 108%
same,residual activity,[1],104%
same,residual activity,PRKD3 (human),99.6%
same,residual activity,TNK2 (human),85.8%
same,residual activity,MAPKAPK3 (human),100%
same,residual activity,RPS6KA1 KD1 KD2 (human),100%
same,residual activity,PRKCH (human),80.9%
same,residual activity,DCLK2 (human),90.2%
same,residual activity,ZAP70 (human),89%
same,residual activity,PLK3 (human),99.2%
same,residual activity,MAPK9 (human),96.5%
same,residual activity,FER (human),103%
same,residual activity,MAPK14 (human),102%
same,residual activity,PDPK1 (human),94.7%
same,residual activity,DAPK1 (human),71%
same,residual activity,PASK (human),97.4%
same,residual activity,WEE1 (human),92.6%
same,residual activity,CSNK1G1 (human),91.6%
same,residual activity,DMPK (human),99.5%
same,residual activity,NEK9 (human),99%
same,residual activity,AKT1 (human),86.9%
same,residual activity,TAOK1 (human),121%
same,residual activity,CDK4 CCND1 (human),87.9%
same,residual activity,GRK6 (human),102%
same,residual activity,LCK (human),99.3%
same,residual activity,RPS6KB2 (human),99.8%
same,residual activity,BLK (human),88.9%
same,residual activity,IRAK4 (human),92.7%
same,residual activity,PAK1 (human),94.9%
same,residual activity,CDK1 CCNA2 (human),94.1%
same,residual activity,ROS1 (human),107%
same,residual activity,TBK1 (human),105%
same,residual activity,PIM1 (human),83.3%
Cc1ccc(NC2=CC(=O)c3sc(C)nc3C2=O)cc1,residual activity,HCK (human),94.4%
same,residual activity,PDGFRA (human),85.9%
same,residual activity,CAMK2B (human),109%
same,residual activity,PAK2 (human),104%
same,residual activity,SRPK1 (human),92.6%
same,residual activity,FLT1 (human),89.8%
same,residual activity,JAK2 JH1 JH2 (human),99.1%
same,residual activity,CAMK4 (human),98.5%
same,residual activity,LYN (human),106% and 95.4%
same,residual activity,[1],95.1%
same,residual activity,PRKD3 (human),93.5%
same,residual activity,TNK2 (human),94.3%
same,residual activity,MAPKAPK3 (human),76.5%
same,residual activity,RPS6KA1 KD1 KD2 (human),102%
same,residual activity,PRKCH (human),89.4%
same,residual activity,DCLK2 (human),95.3%
same,residual activity,ZAP70 (human),95.4%
same,residual activity,PLK3 (human),94.5%
same,residual activity,MAPK9 (human),96.5%
same,residual activity,FER (human),83.9%
same,residual activity,MAPK14 (human),92.4%
same,residual activity,PDPK1 (human),88.7%
same,residual activity,DAPK1 (human),105%
same,residual activity,PASK (human),89.4%
same,residual activity,WEE1 (human),107%
same,residual activity,CSNK1G1 (human),102%
same,residual activity,DMPK (human),103%
same,residual activity,NEK9 (human),99.4%
same,residual activity,AKT1 (human),83.3%
same,residual activity,TAOK1 (human),99.8%
same,residual activity,CDK4 CCND1 (human),92%
same,residual activity,GRK6 (human),96.8%
same,residual activity,LCK (human),94.2%
same,residual activity,RPS6KB2 (human),95.2%
same,residual activity,BLK (human),95.4%
same,residual activity,IRAK4 (human),124%
same,residual activity,PAK1 (human),87.5%
same,residual activity,CDK1 CCNA2 (human),75.9%
same,residual activity,ROS1 (human),107%
same,residual activity,TBK1 (human),94%
same,residual activity,PIM1 (human),96.8%
CC(=O)c1ccc(N2CCOCC2)cc1O,residual activity,HCK (human),116%
same,residual activity,PDGFRA (human),94.7%
same,residual activity,CAMK2B (human),105%
same,residual activity,PAK2 (human),98.8%
same,residual activity,SRPK1 (human),90.7%
same,residual activity,FLT1 (human),97.1%
same,residual activity,JAK2 JH1 JH2 (human),93.6%
same,residual activity,CAMK4 (human),93%
same,residual activity,LYN (human),106% and 98.8%
same,residual activity,[1],104%
same,residual activity,PRKD3 (human),98.4%
same,residual activity,TNK2 (human),101%
same,residual activity,MAPKAPK3 (human),105%
same,residual activity,RPS6KA1 KD1 KD2 (human),92.4%
same,residual activity,PRKCH (human),99.3%
same,residual activity,DCLK2 (human),101%
same,residual activity,ZAP70 (human),99.5%
same,residual activity,PLK3 (human),98.1%
same,residual activity,MAPK9 (human),105%
same,residual activity,FER (human),90.4%
same,residual activity,MAPK14 (human),97.1%
same,residual activity,PDPK1 (human),111%
same,residual activity,DAPK1 (human),92.8%
same,residual activity,PASK (human),95%
same,residual activity,WEE1 (human),97.5%
same,residual activity,CSNK1G1 (human),91.8%
same,residual activity,DMPK (human),105%
same,residual activity,NEK9 (human),93.9%
same,residual activity,AKT1 (human),103%
same,residual activity,TAOK1 (human),99.4%
same,residual activity,CDK4 CCND1 (human),94.4%
same,residual activity,GRK6 (human),100%
same,residual activity,LCK (human),100%
same,residual activity,RPS6KB2 (human),101%
same,residual activity,BLK (human),102%
same,residual activity,IRAK4 (human),120%
same,residual activity,PAK1 (human),93.7%
same,residual activity,CDK1 CCNA2 (human),99.8%
same,residual activity,ROS1 (human),102%
same,residual activity,TBK1 (human),99.1%
same,residual activity,PIM1 (human),97.2%
CC[n+]1c(/C=C/N(C)c2ccccc2)n(-c2ccccc2)c2ccc(-c3nc4ccccc4s3)cc21,residual activity,HCK (human),104%
same,residual activity,PDGFRA (human),95.2%
same,residual activity,CAMK2B (human),103%
same,residual activity,PAK2 (human),97.3%
same,residual activity,SRPK1 (human),105%
same,residual activity,FLT1 (human),94.1%
same,residual activity,JAK2 JH1 JH2 (human),98.8%
same,residual activity,CAMK4 (human),93.2%
same,residual activity,LYN (human),100% and 110%
same,residual activity,[1],104%
same,residual activity,PRKD3 (human),97.4%
same,residual activity,TNK2 (human),98%
same,residual activity,MAPKAPK3 (human),100%
same,residual activity,RPS6KA1 KD1 KD2 (human),104%
same,residual activity,PRKCH (human),101%
same,residual activity,DCLK2 (human),102%
same,residual activity,ZAP70 (human),95.5%
same,residual activity,PLK3 (human),104%
same,residual activity,MAPK9 (human),94.6%
same,residual activity,FER (human),98.9%
same,residual activity,MAPK14 (human),94.9%
same,residual activity,PDPK1 (human),103%
same,residual activity,DAPK1 (human),74.7%
same,residual activity,PASK (human),102%
same,residual activity,WEE1 (human),92.4%
same,residual activity,CSNK1G1 (human),104%
same,residual activity,DMPK (human),93.9%
same,residual activity,NEK9 (human),108%
same,residual activity,AKT1 (human),104%
same,residual activity,TAOK1 (human),99.4%
same,residual activity,CDK4 CCND1 (human),107%
same,residual activity,GRK6 (human),98.9%
same,residual activity,LCK (human),89.9%
same,residual activity,RPS6KB2 (human),93.2%
same,residual activity,BLK (human),99.1%
same,residual activity,IRAK4 (human),173%
same,residual activity,PAK1 (human),87.5%
same,residual activity,CDK1 CCNA2 (human),98.8%
same,residual activity,ROS1 (human),99.1%
same,residual activity,TBK1 (human),95.7%
same,residual activity,PIM1 (human),102%
O=c1cc(N2CCOCC2)oc2c1ccc1ccccc12,residual activity,HCK (human),114%
same,residual activity,PDGFRA (human),83.9%
same,residual activity,CAMK2B (human),98.1%
same,residual activity,PAK2 (human),103%
same,residual activity,SRPK1 (human),90.9%
same,residual activity,FLT1 (human),95.5%
same,residual activity,JAK2 JH1 JH2 (human),94.9%
same,residual activity,CAMK4 (human),94%
same,residual activity,LYN (human),102% and 104%
same,residual activity,[1],104%
same,residual activity,PRKD3 (human),98.8%
same,residual activity,TNK2 (human),100%
same,residual activity,MAPKAPK3 (human),105%
same,residual activity,RPS6KA1 KD1 KD2 (human),92%
same,residual activity,PRKCH (human),94.7%
same,residual activity,DCLK2 (human),100%
same,residual activity,ZAP70 (human),103%
same,residual activity,PLK3 (human),64%
same,residual activity,MAPK9 (human),101%
same,residual activity,FER (human),91.2%
same,residual activity,MAPK14 (human),96.7%
same,residual activity,PDPK1 (human),109%
same,residual activity,DAPK1 (human),90.9%
same,residual activity,PASK (human),94.9%
same,residual activity,WEE1 (human),101%
same,residual activity,CSNK1G1 (human),101%
same,residual activity,DMPK (human),105%
same,residual activity,NEK9 (human),102%
same,residual activity,AKT1 (human),101%
same,residual activity,TAOK1 (human),97.5%
same,residual activity,CDK4 CCND1 (human),95.6%
same,residual activity,GRK6 (human),93.8%
same,residual activity,LCK (human),99.2%
same,residual activity,RPS6KB2 (human),99.6%
same,residual activity,BLK (human),104%
same,residual activity,IRAK4 (human),122%
same,residual activity,PAK1 (human),93.5%
same,residual activity,CDK1 CCNA2 (human),103%
same,residual activity,ROS1 (human),97%
same,residual activity,TBK1 (human),102%
same,residual activity,PIM1 (human),54.8%
